# System: MV-4-11 cells
# Assay: Gene expression microarray analysis (Affymetrix PrimeView) and GSEA
# Format: cell-based, human
# Design: RFU PODN (11730768_x_at) / Fold change /veh PODN (11730768_x_at) / RFU LINC00158 (11744669_a_at) / Fold change /veh LINC00158 (11744669_a_at) / RFU DUSP10 (11751237_a_at) / Fold change /veh DUSP10 (11751237_a_at) / RFU ID3 (11757404_x_at) / Fold change /veh ID3 (11757404_x_at) / RFU PLEKHG5 (11737974_s_at) / Fold change /veh PLEKHG5 (11737974_s_at) / RFU LRRC4B (11730491_at) / Fold change /veh LRRC4B (11730491_at) / RFU GIMAP4 (11747438_a_at) / Fold change /veh GIMAP4 (11747438_a_at) / RFU KRT8 (11758183_x_at) / Fold change /veh KRT8 (11758183_x_at) / RFU CNN1 (11734310_a_at) / Fold change /veh CNN1 (11734310_a_at) / RFU VPS37D (11726825_at) / Fold change /veh VPS37D (11726825_at) / RFU C10orf10 (11716522_x_at) / Fold change /veh C10orf10 (11716522_x_at) / RFU KIR2DL2 /// KIR2DL4 /// KIR2DL5A /// KIR2DL5B /// KIR2DS1 /// KIR2DS2 /// KIR2DS3 /// KIR2DS4 /// KIR3DL3 /// KIR3DL3 /// KIR3DS1 (11738374_at) / Fold change /veh KIR2DL2 /// KIR2DL4 /// KIR2DL5A /// KIR2DL5B /// KIR2DS1 /// KIR2DS2 /// KIR2DS3 /// KIR2DS4 /// KIR3DL3 /// KIR3DL3 /// KIR3DS1 (11738374_at) / RFU C1QL1 (11718748_at) / Fold change /veh C1QL1 (11718748_at) / RFU TMPRSS4 (11747572_a_at) / Fold change /veh TMPRSS4 (11747572_a_at) / RFU HAMP (11756126_x_at) / Fold change /veh HAMP (11756126_x_at) / RFU RNFT2 (11725882_a_at) / Fold change /veh RNFT2 (11725882_a_at) / RFU NR4A2 (11747474_a_at) / Fold change /veh NR4A2 (11747474_a_at) / RFU ABCC12 (11746883_a_at) / Fold change /veh ABCC12 (11746883_a_at) / RFU TMEM136 (11760407_x_at) / Fold change /veh TMEM136 (11760407_x_at) / RFU CLDN22 /// WWC2 (11732394_at) / Fold change /veh CLDN22 /// WWC2 (11732394_at) / RFU HLA-DPB1 (11760878_x_at) / Fold change /veh HLA-DPB1 (11760878_x_at) / RFU SPINT1 (11716480_a_at) / Fold change /veh SPINT1 (11716480_a_at) / RFU GAP43 (11754022_s_at) / Fold change /veh GAP43 (11754022_s_at) / RFU A4GNT (11735810_at) / Fold change /veh A4GNT (11735810_at) / RFU PRB3 (11715151_x_at) / Fold change /veh PRB3 (11715151_x_at) / RFU TUBB4B (11761932_at) / Fold change /veh TUBB4B (11761932_at) / RFU CAPN14 (11732068_a_at) / Fold change /veh CAPN14 (11732068_a_at) / RFU TMCC2 (11721928_a_at) / Fold change /veh TMCC2 (11721928_a_at) / RFU IRGQ (11745062_a_at) / Fold change /veh IRGQ (11745062_a_at) / RFU FAM174B (11720279_a_at) / Fold change /veh FAM174B (11720279_a_at) / RFU TMPRSS4 (11748680_a_at) / Fold change /veh TMPRSS4 (11748680_a_at) / RFU FAM212B (11763350_a_at) / Fold change /veh FAM212B (11763350_a_at) / RFU PLEKHG5 (11743358_a_at) / Fold change /veh PLEKHG5 (11743358_a_at) / RFU ZSCAN30 (11745921_a_at) / Fold change /veh ZSCAN30 (11745921_a_at) / RFU CMKLR1 (11741424_a_at) / Fold change /veh CMKLR1 (11741424_a_at) / RFU LOC101060620 /// MAPK8IP1 (11723275_at) / Fold change /veh LOC101060620 /// MAPK8IP1 (11723275_at) / RFU SPTSSB (11747773_x_at) / Fold change /veh SPTSSB (11747773_x_at) / RFU PRSS12 (11739890_at) / Fold change /veh PRSS12 (11739890_at) / RFU BIN1 (11741810_x_at) / Fold change /veh BIN1 (11741810_x_at) / RFU WNT11 (11732464_a_at) / Fold change /veh WNT11 (11732464_a_at) / RFU C10orf10 (11716521_a_at) / Fold change /veh C10orf10 (11716521_a_at) / RFU C5orf56 (11738089_at) / Fold change /veh C5orf56 (11738089_at) / RFU CYB561 (11721691_x_at) / Fold change /veh CYB561 (11721691_x_at) / RFU ANKRD19P (11752326_a_at) / Fold change /veh ANKRD19P (11752326_a_at) / RFU OR2T12 /// OR2T33 /// OR2T8 (11738714_s_at) / Fold change /veh OR2T12 /// OR2T33 /// OR2T8 (11738714_s_at) / RFU VCAN (11748164_a_at) / Fold change /veh VCAN (11748164_a_at) / RFU JSRP1 (11732532_at) / Fold change /veh JSRP1 (11732532_at) / RFU KRTAP10-11 (11738290_x_at) / Fold change /veh KRTAP10-11 (11738290_x_at) / RFU MYO3A (11730013_a_at) / Fold change /veh MYO3A (11730013_a_at) / RFU EBF3 (11725865_a_at) / Fold change /veh EBF3 (11725865_a_at) / RFU CAMK2N1 (11719241_x_at) / Fold change /veh CAMK2N1 (11719241_x_at) / RFU C5orf56 (11738088_a_at) / Fold change /veh C5orf56 (11738088_a_at) / RFU OLFML3 (11715873_a_at) / Fold change /veh OLFML3 (11715873_a_at) / RFU LOC100653217 /// NTM (11731650_a_at) / Fold change /veh LOC100653217 /// NTM (11731650_a_at) / RFU MAPK11 (11762145_a_at) / Fold change /veh MAPK11 (11762145_a_at) / RFU FIZ1 (11724087_x_at) / Fold change /veh FIZ1 (11724087_x_at) / RFU OASL (11726364_x_at) / Fold change /veh OASL (11726364_x_at) / RFU SOX15 (11748057_x_at) / Fold change /veh SOX15 (11748057_x_at) / RFU CD79A (11719716_a_at) / Fold change /veh CD79A (11719716_a_at) / RFU HIST1H1D (11736915_at) / Fold change /veh HIST1H1D (11736915_at) / RFU CASKIN2 (11723855_a_at) / Fold change /veh CASKIN2 (11723855_a_at) / RFU LOC730098 (11760151_x_at) / Fold change /veh LOC730098 (11760151_x_at) / RFU OR4N2 (11742367_at) / Fold change /veh OR4N2 (11742367_at) / RFU PRRT2 (11749266_a_at) / Fold change /veh PRRT2 (11749266_a_at) / RFU SNX32 (11753110_a_at) / Fold change /veh SNX32 (11753110_a_at) / RFU CDHR5 (11726645_a_at) / Fold change /veh CDHR5 (11726645_a_at) / RFU RCAN1 (11760418_a_at) / Fold change /veh RCAN1 (11760418_a_at) / RFU FAM167A (11723789_a_at) / Fold change /veh FAM167A (11723789_a_at) / RFU FAM26E (11764081_at) / Fold change /veh FAM26E (11764081_at) / RFU ISYNA1 (11749810_s_at) / Fold change /veh ISYNA1 (11749810_s_at) / RFU ACY1 (11761880_at) / Fold change /veh ACY1 (11761880_at) / RFU 11764098_at / Fold change /veh 11764098_at / RFU SAMD14 (11745864_x_at) / Fold change /veh SAMD14 (11745864_x_at) / RFU NPB (11741838_a_at) / Fold change /veh NPB (11741838_a_at) / RFU TMPRSS6 (11731388_a_at) / Fold change /veh TMPRSS6 (11731388_a_at) / RFU KRTAP10-2 (11738614_at) / Fold change /veh KRTAP10-2 (11738614_at) / RFU ARHGAP8 /// PRR5-ARHGAP8 (11727945_x_at) / Fold change /veh ARHGAP8 /// PRR5-ARHGAP8 (11727945_x_at) / RFU KRTAP5-7 /// NADSYN1 (11734609_at) / Fold change /veh KRTAP5-7 /// NADSYN1 (11734609_at) / RFU RASL12 (11751679_a_at) / Fold change /veh RASL12 (11751679_a_at) / RFU CDKN2B (11736163_a_at) / Fold change /veh CDKN2B (11736163_a_at) / RFU PRF1 (11729649_at) / Fold change /veh PRF1 (11729649_at) / RFU, ZNF638 /// ZNF638-IT1 / Fold change vs veh, ZNF638 /// ZNF638-IT1 / RFU, PANK3 / Fold change vs veh, PANK3 / RFU, SH3YL1 / Fold change vs veh, SH3YL1 / RFU, ZEB2 / Fold change vs veh, ZEB2 / RFU, NRIP1 / Fold change vs veh, NRIP1 / RFU, PTTG1IP / Fold change vs veh, PTTG1IP / RFU, CAPN2 / Fold change vs veh, CAPN2 / RFU, MED14 / Fold change vs veh, MED14 / RFU, SNORA58 / Fold change vs veh, SNORA58 / RFU, C1orf63 / Fold change vs veh, C1orf63 / RFU, LRRFIP1 / Fold change vs veh, LRRFIP1 / RFU, NDUFAF7 / Fold change vs veh, NDUFAF7 / RFU, SLC12A2 / Fold change vs veh, SLC12A2 / RFU, IBTK / Fold change vs veh, IBTK / RFU, ESF1 / Fold change vs veh, ESF1 / Fold change vs veh, TMEM50B / RFU, TAOK1 / Fold change vs veh, TAOK1 / RFU, ACBD3 / Fold change vs veh, ACBD3 / RFU, TMA16 / Fold change vs veh, TMA16 / RFU, RWDD3 / Fold change vs veh, RWDD3 / RFU, BCAT1 / Fold change vs veh, BCAT1 / RFU, EDEM3 / Fold change vs veh, EDEM3 / RFU, TMEM33 / Fold change vs veh, TMEM33 / RFU, WDR75 / Fold change vs veh, WDR75 / RFU, AHCTF1 / Fold change vs veh, AHCTF1 / RFU, TFRC / Fold change vs veh, TFRC / RFU, ZDHHC17 / Fold change vs veh, ZDHHC17 / RFU, NOM1 / Fold change vs veh, NOM1 / RFU, ARL8B / Fold change vs veh, ARL8B / RFU, ZBTB11 / Fold change vs veh, ZBTB11 / RFU, TAMM41 / Fold change vs veh, TAMM41 / RFU, KIAA1704 /// LOC100996395 / Fold change vs veh, KIAA1704 /// LOC100996395 / RFU, ING1 / Fold change vs veh, ING1 / RFU, TRMT61B / Fold change vs veh, TRMT61B / RFU, FUBP3 / Fold change vs veh, FUBP3 / RFU, TP53 / Fold change vs veh, TP53 / RFU, TNKS2 / Fold change vs veh, TNKS2 / RFU, ZFP14 / Fold change vs veh, ZFP14 / RFU, ACTR2 / Fold change vs veh, ACTR2 / RFU, PPP3R1 / Fold change vs veh, PPP3R1 / RFU, PIK3R1 / Fold change vs veh, PIK3R1 / RFU, HNRNPA1 / Fold change vs veh, HNRNPA1 / RFU, RNF170 / Fold change vs veh, RNF170 / RFU, ZNF28 / Fold change vs veh, ZNF28 / RFU, RNGTT / Fold change vs veh, RNGTT / RFU, OGT / Fold change vs veh, OGT / RFU, BRD1 / Fold change vs veh, BRD1 / RFU, MARS / Fold change vs veh, MARS / RFU, ZNF655 / Fold change vs veh, ZNF655 / RFU, FAHD1 / Fold change vs veh, FAHD1 / RFU, BDP1 / Fold change vs veh, BDP1 / RFU, LRRCC1 / Fold change vs veh, LRRCC1 / RFU, ARID1A / Fold change vs veh, ARID1A / RFU, ZNF146 / Fold change vs veh, ZNF146 / RFU, ZNF330 / Fold change vs veh, ZNF330 / RFU, GPN3 / Fold change vs veh, GPN3 / RFU, C9orf123 / Fold change vs veh, C9orf123 / RFU, N4BP2L2 / Fold change vs veh, N4BP2L2 / RFU, ARFIP1 / Fold change vs veh, ARFIP1 / RFU, FAM179B / Fold change vs veh, FAM179B / RFU, BCL10 / Fold change vs veh, BCL10 / RFU, UHRF1BP1L / Fold change vs veh, UHRF1BP1L / RFU, BET1 / Fold change vs veh, BET1 / RFU, CNOT2 / Fold change vs veh, CNOT2 / RFU, ZNF268 / Fold change vs veh, ZNF268 / Fold change vs veh, ZNF507 / RFU, DGCR2 / Fold change vs veh, DGCR2 / RFU, WDSUB1 / Fold change vs veh, WDSUB1 / Fold change vs veh, HSP90B1 /// MIR3652 / RFU, ADSS / Fold change vs veh, ADSS / RFU, GK / Fold change vs veh, GK / RFU, ZNF148 / Fold change vs veh, ZNF148 / RFU, TAF9 / Fold change vs veh, TAF9 / RFU, SLC1A5 / Fold change vs veh, SLC1A5 / RFU, SLMO2 / Fold change vs veh, SLMO2 / RFU, ABCC4 / Fold change vs veh, ABCC4 / RFU, LOC101060439 /// RAP1B / Fold change vs veh, LOC101060439 /// RAP1B / RFU, RFX7 / Fold change vs veh, RFX7 / RFU, GTPBP10 / Fold change vs veh, GTPBP10 / RFU, CNEP1R1 / Fold change vs veh, CNEP1R1 / RFU, BIVM-ERCC5 /// ERCC5 / Fold change vs veh, BIVM-ERCC5 /// ERCC5 / RFU, ILF3 / Fold change vs veh, ILF3 / RFU 11762660_at / Fold change /veh 11762660_at / RFU VCAN (11757783_s_at) / Fold change /veh VCAN (11757783_s_at) / RFU DDX43 (11728927_at) / Fold change /veh DDX43 (11728927_at) / RFU KRT8 (11758188_x_at) / Fold change /veh KRT8 (11758188_x_at) / RFU NKD1 (11759106_at) / Fold change /veh NKD1 (11759106_at) / RFU SRD5A1 (11742802_a_at) / Fold change /veh SRD5A1 (11742802_a_at) / RFU TPSAB1 /// TPSB2 (11721975_s_at) / Fold change /veh TPSAB1 /// TPSB2 (11721975_s_at) / RFU GSTM3 (11746129_a_at) / Fold change /veh GSTM3 (11746129_a_at) / RFU IL23R (11737362_x_at) / Fold change /veh IL23R (11737362_x_at) / RFU TMEM51 (11727254_a_at) / Fold change /veh TMEM51 (11727254_a_at) / RFU PIWIL2 (11732686_x_at) / Fold change /veh PIWIL2 (11732686_x_at) / RFU ORM1 (11744905_x_at) / Fold change /veh ORM1 (11744905_x_at) / RFU CCDC152 (11743942_at) / Fold change /veh CCDC152 (11743942_at) / RFU ECM1 (11717891_a_at) / Fold change /veh ECM1 (11717891_a_at) / RFU IL23R (11748794_a_at) / Fold change /veh IL23R (11748794_a_at) / RFU TNFAIP8L3 (11732012_x_at) / Fold change /veh TNFAIP8L3 (11732012_x_at) / RFU MBOAT4 (11741988_at) / Fold change /veh MBOAT4 (11741988_at) / RFU 11764193_at / Fold change /veh 11764193_at / RFU TMEM53 (11763286_at) / Fold change /veh TMEM53 (11763286_at) / RFU MAGEB2 (11727129_at) / Fold change /veh MAGEB2 (11727129_at) / RFU TMEM200A (11744735_a_at) / Fold change /veh TMEM200A (11744735_a_at) / RFU CCDC152 (11751479_a_at) / Fold change /veh CCDC152 (11751479_a_at) / RFU FAM211A (11726209_a_at) / Fold change /veh FAM211A (11726209_a_at) / RFU RGS16 (11746705_a_at) / Fold change /veh RGS16 (11746705_a_at) / RFU VCAN (11755009_s_at) / Fold change /veh VCAN (11755009_s_at) / RFU RHOB (11743442_s_at) / Fold change /veh RHOB (11743442_s_at) / RFU RGS16 (11720943_a_at) / Fold change /veh RGS16 (11720943_a_at) / RFU RGS16 (11720944_at) / Fold change /veh RGS16 (11720944_at) / RFU, VPS4B / Fold change vs veh, VPS4B / RFU, CREB1 / Fold change vs veh, CREB1 / RFU, DNAJC13 / Fold change vs veh, DNAJC13 / RFU, GNAQ / Fold change vs veh, GNAQ / RFU, CDK5R1 / Fold change vs veh, CDK5R1 / RFU, ZRANB3 / Fold change vs veh, ZRANB3 / RFU, CUL4A / Fold change vs veh, CUL4A / RFU, CCNY / Fold change vs veh, CCNY / RFU, UFL1 / Fold change vs veh, UFL1 / RFU, COG3 / Fold change vs veh, COG3 / RFU, DIAPH2 / Fold change vs veh, DIAPH2 / RFU, SKA2 / Fold change vs veh, SKA2 / RFU, AFF3 / Fold change vs veh, AFF3 / RFU, LMF1 / Fold change vs veh, LMF1 / RFU, IPO11 / Fold change vs veh, IPO11 / RFU, DFFB / Fold change vs veh, DFFB / RFU, FOXP1 / Fold change vs veh, FOXP1 / RFU, CARD8 / Fold change vs veh, CARD8 / RFU, STRN3 / Fold change vs veh, STRN3 / RFU, ADK / Fold change vs veh, ADK / RFU, RASSF2 / Fold change vs veh, RASSF2 / RFU, WIPF1 / Fold change vs veh, WIPF1 / RFU, LARP1B / Fold change vs veh, LARP1B / RFU, RASA1 / Fold change vs veh, RASA1 / RFU, RB1 / Fold change vs veh, RB1 / RFU, PPFIA1 / Fold change vs veh, PPFIA1 / RFU, MAT2A / Fold change vs veh, MAT2A / RFU, CCT5 / Fold change vs veh, CCT5 / RFU, WDR92 / Fold change vs veh, WDR92 / RFU, CUX1 / Fold change vs veh, CUX1 / RFU, TTC7A / Fold change vs veh, TTC7A / RFU, TMEM135 / Fold change vs veh, TMEM135 / RFU, DEPTOR / Fold change vs veh, DEPTOR / RFU, CPM / Fold change vs veh, CPM / RFU, DNAJB6 / Fold change vs veh, DNAJB6 / RFU, CACNA2D3 / Fold change vs veh, CACNA2D3 / RFU, DTX4 / Fold change vs veh, DTX4 / RFU, TFCP2 / Fold change vs veh, TFCP2 / RFU, GMCL1 /// GMCL1P1 / Fold change vs veh, GMCL1 /// GMCL1P1 / RFU, AEBP2 / Fold change vs veh, AEBP2 / RFU, SNHG1 /// SNORD22 /// SNORD25 /// SNORD26 /// SNORD27 /// SNORD28 /// SNORD29 /// SNORD31 / Fold change vs veh, SNHG1 /// SNORD22 /// SNORD25 /// SNORD26 /// SNORD27 /// SNORD28 /// SNORD29 /// SNORD31 / Fold change (Aza/veh), C12orf56 (ProbeSet 11735607_a_at) / Fold change (ACY-1035/veh), C12orf56 (ProbeSet 11735607_a_at) / Fold change (Aza/veh), FGFR1OP (ProbeSet 11751329_s_at) / Fold change (ACY-1035/veh), FGFR1OP (ProbeSet 11751329_s_at) / Fold change (Aza/veh), VPS36 (ProbeSet 11739960_a_at) / Fold change (ACY-1035/veh), VPS36 (ProbeSet 11739960_a_at) / RFU SYPL1 (11715823_x_at) / Fold change /veh SYPL1 (11715823_x_at) / RFU IGFBP7 (11715501_s_at) / Fold change /veh IGFBP7 (11715501_s_at) / RFU REEP3 (11722064_at) / Fold change /veh REEP3 (11722064_at) / RFU IGLL1 (11728026_x_at) / Fold change /veh IGLL1 (11728026_x_at): dose or concentration left out as unconfirmed
# Settings: MV-4-11 cells, 48 hours
smiles,measurement,value
Nc1ccc(-c2cccs2)cc1NC(=O)c1ccc2c(c1)cc(C1CC1)n2CCN1CCOCC1 [ACY-1035],Fold change /veh ORM1 (11744905_x_at),1.11

# — paper PMC5218480 (PLoS ONE, 2017)
